One data set concerns plasmin. The following applies: read-out: IC50, plasmin; Figure 1; cited from earlier work.
Data set [1] addresses activated protein C (aPC) (Homo sapiens, UniProt P04070). In words: Selectivity: inhibition of activated protein C. The format is biochemical. The following applies: deduced from pre-assays with only three inhibitor concentrations; read-out: aPC K i. As to the method:
(§1) For these three proteases a selectivity index (SI=K i(protease)/K i(plasmin)) was calculated, which is provided in brackets after the inhibition constants (Table 3).
(§2) The measurements with the related trypsin‐like serine proteases trypsin, plasma kallikrein, factor XIa, thrombin, activated protein Ca and factor Xa used in selectivity studies were performed as described previously.[11, 12]

The nature of data set [2]: Water solubility (qualitative comparison). The following applies: compared to inhibitor 28.
The target in a further data set is factor XIa (fXIa) (Homo sapiens, UniProt P03951). Description: Selectivity: inhibition of factor XIa. The format is biochemical. The following applies: for fXIa selectivity index K i(protease)/Ki(plasmin): in brackets; for Ki: read-out: fXIa K i. The procedure: as §1, §2
A further data set concerns the target factor Xa (fXa) (Homo sapiens, UniProt P00742). In words: Selectivity: inhibition of factor Xa. The data set is classed as biochemical. The following applies: deduced from pre-assays with only three inhibitor concentrations; read-out: fXa K i. As to the method:
as §1, §2

The target in another data set is T1, human plasmin (Homo sapiens, UniProt P00747).
T1 construct: purchased Calbiochem
Description: Inhibition of human plasmin, fluorogenic substrate Mes-DArg-Phe-Arg-AMC. The format is biochemical. As to the method: All inhibitors prepared in this study act as reversible competitive plasmin inhibitors, their K i values were calculated by fitting the steady‐state velocities as function of the inhibitor concentrations using equation 1. 4‐aminophenylalanine (Phe(4‐NH2)) was incorporated as P1’ residue in the first inhibitor series, which enabled a macrocyclization via amide bond formation from its side chain amino group using various linker segments and P2’ residues (Table 1). […] The improved potency of SFTI‐1 analogues with basic P2’ residues[9] stimulated the incorporation of Arg in that position leading to inhibitor 4 with a slightly stronger inhibitory potency. A significant improvement could be achieved when using 3‐ or 4‐aminophenylacetic acid as P2’ group in combination with elongated linker residues (5‐6). […] However, inhibitor 9 is a twofold stronger plasmin inhibitor compared to its analogue 8.
For these inhibitors the steady‐state velocities were calculated by fitting the progress curves to equation 2 providing an additional apparent first‐order rate constant k obs for each curve. The steady‐state rates were used for K i determination with equation 1 and the k obs values for the calculation of the association rate constants k on according to equation 3. The dissociation rate constant k off was calculated from the known K i and k on values using equation 4. The enzyme kinetic evaluation of slow‐binding inhibitors of plasmin has already been described in detail in our two previous publications.[11, 12]
All measurements were conducted as triplicates in black 96‐well FluoroNunc MaxiSorp plates (Nunc, Langenselbold, Germany) and suitable fluorogenic substrates at room temperature. […] Each well contained a total volume of 180 μL consisting of 100 μL of inhibitor dissolved in buffer, 40 μL of the substrate Mes‐DArg‐Phe‐Arg‐AMC[11] (100 μM in assay, KM=16.1 μM) dissolved in water and 40 μL of plasmin solution (0.27 nM in assay). The following equations were used for the enzyme kinetic analysis as described in the results section and in our previous publications.[11, 12] (1) [drawing 71] (2) [drawing 72] (3) [drawing 73] (4) [drawing 74]

A further data set deals with plasma kallikrein (PK) (Homo sapiens, UniProt P03952). Description: Selectivity: inhibition of plasma kallikrein. The data set is classed as biochemical. The following applies: for PK selectivity index K i(protease)/Ki(plasmin): in brackets; for Ki: read-out: PK K i. The procedure:
as §1, §2

The target of the next data set is thrombin (Homo sapiens, UniProt P00734). In words: Selectivity: inhibition of thrombin. The data set is classed as biochemical. The following applies: deduced from pre-assays with only three inhibitor concentrations; read-out: Thrombin K i. As to the method: as §1, §2
A further data set deals with PK. The following applies: no reference given; read-out: K i, PK; cited from earlier work.
Setting [3] is: K i (nM), inhibition of plasmin, series two, substituted Bpa in P1', and acyclic analogues, steady-state velocities, equation 1.
Where [4] appears, read: Plasmin K i, Table 3 selectivity.

“And” between values parts separate entries of the source, which are not always exact repeats. Equal entries are not always repeated.

Sequence of plasma kallikrein (PK) (P03952 391-638): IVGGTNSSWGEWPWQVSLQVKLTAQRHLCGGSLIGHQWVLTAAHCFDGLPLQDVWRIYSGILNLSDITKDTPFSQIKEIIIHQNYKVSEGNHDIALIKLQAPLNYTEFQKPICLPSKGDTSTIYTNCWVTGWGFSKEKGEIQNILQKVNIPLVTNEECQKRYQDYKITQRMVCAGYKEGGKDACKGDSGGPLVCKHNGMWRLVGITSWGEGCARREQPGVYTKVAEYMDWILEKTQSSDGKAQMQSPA
Sequence of plasma kallikrein (PK) (P03952 20-390): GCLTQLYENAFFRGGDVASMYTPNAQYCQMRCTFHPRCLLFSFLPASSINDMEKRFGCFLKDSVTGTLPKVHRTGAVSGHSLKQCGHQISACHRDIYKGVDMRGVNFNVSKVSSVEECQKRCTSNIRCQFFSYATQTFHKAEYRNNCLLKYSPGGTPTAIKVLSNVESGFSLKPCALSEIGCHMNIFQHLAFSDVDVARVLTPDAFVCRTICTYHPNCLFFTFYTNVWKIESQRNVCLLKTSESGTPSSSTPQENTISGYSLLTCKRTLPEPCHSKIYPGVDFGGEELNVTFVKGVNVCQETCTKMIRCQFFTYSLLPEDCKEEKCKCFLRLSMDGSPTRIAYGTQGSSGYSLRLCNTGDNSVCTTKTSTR
Sequence of activated protein C (aPC) (P04070 43-197): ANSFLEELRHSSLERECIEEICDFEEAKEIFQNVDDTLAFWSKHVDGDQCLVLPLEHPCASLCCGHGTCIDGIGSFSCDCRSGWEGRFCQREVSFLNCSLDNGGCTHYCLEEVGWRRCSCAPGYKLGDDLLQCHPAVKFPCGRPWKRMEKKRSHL
Sequence of activated protein C (aPC) (P04070 212-461): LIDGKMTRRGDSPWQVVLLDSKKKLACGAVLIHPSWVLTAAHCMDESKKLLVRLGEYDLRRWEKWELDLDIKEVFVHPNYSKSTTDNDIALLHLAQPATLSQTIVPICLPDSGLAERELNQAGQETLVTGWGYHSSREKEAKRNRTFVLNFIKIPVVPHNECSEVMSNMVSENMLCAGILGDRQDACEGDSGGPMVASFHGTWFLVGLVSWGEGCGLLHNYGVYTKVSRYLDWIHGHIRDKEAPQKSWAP
Sequence of factor Xa (fXa) (P00742 41-179): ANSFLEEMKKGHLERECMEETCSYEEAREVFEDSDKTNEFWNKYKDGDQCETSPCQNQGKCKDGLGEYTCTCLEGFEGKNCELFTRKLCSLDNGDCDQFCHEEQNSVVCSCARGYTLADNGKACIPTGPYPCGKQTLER
Sequence of factor Xa (fXa) (P00742 235-488): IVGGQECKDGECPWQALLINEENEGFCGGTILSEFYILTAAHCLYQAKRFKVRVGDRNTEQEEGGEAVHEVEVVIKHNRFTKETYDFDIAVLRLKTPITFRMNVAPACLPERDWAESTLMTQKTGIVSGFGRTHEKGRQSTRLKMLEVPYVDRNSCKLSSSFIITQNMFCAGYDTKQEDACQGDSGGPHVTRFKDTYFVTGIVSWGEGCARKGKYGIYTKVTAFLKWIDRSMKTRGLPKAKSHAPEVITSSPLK
Sequence of factor XIa (fXIa) (P03951 19-387): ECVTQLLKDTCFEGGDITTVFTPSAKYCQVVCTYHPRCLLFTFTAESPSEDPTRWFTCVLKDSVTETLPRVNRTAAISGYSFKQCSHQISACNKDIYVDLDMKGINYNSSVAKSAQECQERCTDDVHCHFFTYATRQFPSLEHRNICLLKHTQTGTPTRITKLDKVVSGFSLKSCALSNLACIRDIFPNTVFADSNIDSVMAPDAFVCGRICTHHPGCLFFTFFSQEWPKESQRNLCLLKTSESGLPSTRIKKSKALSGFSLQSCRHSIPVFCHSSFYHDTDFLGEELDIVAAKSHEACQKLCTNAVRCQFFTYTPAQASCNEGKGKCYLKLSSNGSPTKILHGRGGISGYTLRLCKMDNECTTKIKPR
Sequence of factor XIa (fXIa) (P03951 388-625): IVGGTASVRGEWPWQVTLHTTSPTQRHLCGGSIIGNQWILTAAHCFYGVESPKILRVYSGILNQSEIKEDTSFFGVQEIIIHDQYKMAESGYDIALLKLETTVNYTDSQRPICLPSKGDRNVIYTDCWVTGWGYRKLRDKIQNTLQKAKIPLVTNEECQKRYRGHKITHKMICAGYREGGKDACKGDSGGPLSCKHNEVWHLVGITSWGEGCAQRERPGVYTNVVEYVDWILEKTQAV
T1 sequence (P00747 581-810): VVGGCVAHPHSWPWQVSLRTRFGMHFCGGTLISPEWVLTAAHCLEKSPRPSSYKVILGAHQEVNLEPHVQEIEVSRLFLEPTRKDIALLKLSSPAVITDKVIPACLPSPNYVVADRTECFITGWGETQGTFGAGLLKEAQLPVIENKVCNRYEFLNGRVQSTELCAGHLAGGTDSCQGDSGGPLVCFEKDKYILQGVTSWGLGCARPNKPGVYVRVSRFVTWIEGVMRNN
T1 sequence (P00747 97-580): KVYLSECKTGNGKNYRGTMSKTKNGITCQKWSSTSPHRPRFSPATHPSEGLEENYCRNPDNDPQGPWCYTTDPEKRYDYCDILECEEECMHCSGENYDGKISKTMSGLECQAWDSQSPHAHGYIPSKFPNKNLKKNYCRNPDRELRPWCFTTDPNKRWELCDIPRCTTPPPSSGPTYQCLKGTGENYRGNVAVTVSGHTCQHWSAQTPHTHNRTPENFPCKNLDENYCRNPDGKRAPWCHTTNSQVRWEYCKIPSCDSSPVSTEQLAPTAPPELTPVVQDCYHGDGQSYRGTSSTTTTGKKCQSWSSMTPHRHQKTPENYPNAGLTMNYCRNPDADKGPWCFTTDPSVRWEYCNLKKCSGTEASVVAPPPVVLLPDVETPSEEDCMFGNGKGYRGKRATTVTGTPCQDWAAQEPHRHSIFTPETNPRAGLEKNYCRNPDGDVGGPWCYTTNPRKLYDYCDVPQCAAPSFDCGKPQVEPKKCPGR

As a reminder, the IC50 is the concentration that gives 50% inhibition. For `CCCCCCCCNC(=O)[C@H](Cc1ccc(OCc2ccncc2)cc1)NC(=O)[C@H]1CC[C@H](CN)CC1` [YO-2], the IC50 with plasmin was 240 nM.

Turning to `Cc1ccc2cc1NC(=O)C(CCc1ccccc1)NC(=O)CCCNC(=O)Cc1ccc(cc1)NC(=O)C(NC(=O)C1CCC(CN)CC1)Cc1ccc-2cc1` (stereo not drawn) [inhibitor 31], the Ki in data set [1] is above 10 µM; at factor XIa (fXIa), 88 ± 23 nM; at factor Xa (fXa), above 80 µM; on human plasmin (setting [3]), 0.831 ± 0.154 nM; on human plasmin (setting [4]), 0.831 nM; on plasma kallikrein (PK), 67 ± 4 nM. For the same compound, on thrombin, the Ki is above 75 µM. For the same compound, the water solubility entry in data set [2] was “reduced water solubility”. Besides, the “fXIa selectivity index K i(protease)/Ki(plasmin)” value at factor XIa (fXIa) is recorded as 117. At plasma kallikrein (PK), the “PK selectivity index K i(protease)/Ki(plasmin)” value turned out to be 89.

Consider aprotinin, for which the Ki at PK was 30 nM.

Regarding `Cc1ccc2cc1NC(=O)CNC(=O)CCNC(=O)c1ccc3cc(ccc3c1)NC(=O)[C@@H](NC(=O)[C@H]1CC[C@H](CN)CC1)Cc1ccc-2cc1` [inhibitor 45], the Ki in [1] was above 4 µM; on factor XIa (fXIa), 320 ± 50 nM; on factor Xa (fXa) it was above 40 µM; at human plasmin (setting [3]), 2.53 ± 0.23 nM; at human plasmin (setting [4]), 2.53 nM; on plasma kallikrein (PK), 156 ± 35 nM. Besides, the Ki on thrombin was above 40 µM. For the same compound, the “fXIa selectivity index K i(protease)/Ki(plasmin)” value on factor XIa (fXIa) is 137. Also, the “PK selectivity index K i(protease)/Ki(plasmin)” value on plasma kallikrein (PK) worked out at 62.

`NC[C@H]1CC[C@H](C(=O)N[C@H]2Cc3ccc(cc3)-c3ccc(C(=O)Nc4ccccc4)c(c3)NC(=O)CNC(=O)CCCNC(=O)Cc3ccc(cc3)NC2=O)CC1` [inhibitor 32]: the Ki in data set [1] was above 20 µM; at factor XIa (fXIa), 5.3 ± 1.4 nM; at factor Xa (fXa), above 5 µM; on human plasmin (setting [3]), 1.46 ± 0.07 nM; at human plasmin (setting [4]), 1.46 nM; at plasma kallikrein (PK), 15 ± 1 nM. The Ki on thrombin is above 25 µM. At factor XIa (fXIa), the “fXIa selectivity index K i(protease)/Ki(plasmin)” value stood at 4. Also, the “PK selectivity index K i(protease)/Ki(plasmin)” value on plasma kallikrein (PK) amounted to 11.

Consider `Cc1ccc2cc1NC(=O)CNC(=O)CCCNC(=O)Cc1cccc(c1)NC(=O)[C@@H](NC(=O)[C@H]1CC[C@H](CN)CC1)Cc1ccc-2cc1` [inhibitor 40], for which the Ki in data set [1] was above 40 µM; at factor XIa (fXIa), 110 ± 10 nM; at factor Xa (fXa), above 9 µM; at human plasmin (setting [3]), 9.47 ± 0.75 nM; on human plasmin (setting [4]), 9.47 nM; at plasma kallikrein (PK) it was 120 ± 10 nM. In addition, the Ki on thrombin is above 80 µM. In addition, at factor XIa (fXIa), the “fXIa selectivity index K i(protease)/Ki(plasmin)” value is on record as 13. In addition, the “PK selectivity index K i(protease)/Ki(plasmin)” value at plasma kallikrein (PK) was determined as 14.

In the case of `CC(C)NC(=O)c1ccc2cc1NC(=O)CNC(=O)CCCNC(=O)Cc1ccc(cc1)NC(=O)C(NC(=O)C1CCC(CN)CC1)Cc1ccc-2cc1` [inhibitor 33, (S)‐4‐((1r,4S)‐4‐(aminomethyl)cyclohexane‐1‐carboxamido)‐N‐isopropyl‐5,9,14,17‐tetraoxo‐6,10,15,18‐tetraaza‐1(1,3),2,7(1,4)‐tribenzenacyclooctadecaphane‐14‐carboxamide], the Ki is above 35 µM in data set [1]; 8.1 ± 1.6 nM on factor XIa (fXIa); above 10 µM on factor Xa (fXa); 0.52 nM and 0.524 nM on human plasmin (setting [3]); 0.524 nM at human plasmin (setting [4]); 9.4 ± 2.1 nM on plasma kallikrein (PK). In addition, the Ki on thrombin is above 45 µM. On factor XIa (fXIa), the “fXIa selectivity index K i(protease)/Ki(plasmin)” value is recorded as 18. Further, the “PK selectivity index K i(protease)/Ki(plasmin)” value at plasma kallikrein (PK) came to 21.

Source of the values: paper PMC11617653, “Macrocyclic Inhibitors Targeting the Prime Site of the Fibrinolytic Serine Protease Plasmin” (Chemmedchem, 2024).
